# Earlier results in publication PMC10151178 (Brain, 2023).
# System: IIH patients
# From the text: The minimal clinically important change in ICP in those with IIH has yet to be determined.[38] […] In this trial ...
compound,measurement,setting,value
CC(=O)Nc1nnc(S(N)(=O)=O)s1 [acetazolamide],Magnitude of treatment effect on ICP between trial arms,acetazolamide and diet,5.9 cmCSF
same,Patients who withdrew due to adverse effects,"over a 3-month period, previous randomized controlled trial",48%
